Experimental findings from ChEMBL document CHEMBL3351869, “Discovery of a new family of carbonic anhydrases in the malaria pathogen Plasmodium falciparum--the η-carbonic anhydrases” (Bioorg Med Chem Lett, 2014) are described below.

pKi: −log10 of the molar value.

The target in the experiment is Carbonic anhydrase 1 (Homo sapiens, UniProt P00915).
Carbonic anhydrase 1, sequence (P00915 whole entry): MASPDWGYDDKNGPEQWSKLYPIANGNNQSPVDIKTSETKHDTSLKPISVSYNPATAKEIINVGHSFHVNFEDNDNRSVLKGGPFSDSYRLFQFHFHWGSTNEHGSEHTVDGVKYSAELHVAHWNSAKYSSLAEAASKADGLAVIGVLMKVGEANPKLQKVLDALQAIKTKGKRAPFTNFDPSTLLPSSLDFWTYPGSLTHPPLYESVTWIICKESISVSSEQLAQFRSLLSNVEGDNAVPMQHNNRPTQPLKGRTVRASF

On to `O=[Se](=O)(O)O` [SODIUM SELENATE], for which the pKi (as a rule, −log10 of the Ki, conventionally taken in molar units) was 3.24.
